Test results taken from ChEMBL document CHEMBL1201862, “PubChem BioAssay data set” (2004).
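Results reflect a 48-hour exposure of cells in 96-well plates to compound at five concentrations. The concentration for 50% growth inhibition is given as GI50.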 Calls of active or inactive are those of the source. Cut-off read from the data, not from the text of the source: active = GI50 up to about 1.1 µM and inactive = higher. Square brackets hold non-standard residues; d marks the D form. Peptide text beside a SMILES is read from it. * marks the point of attachment. ξ: configuration not given here. NMeN = CN[C@@H](CC(N)=O)C(=O)O; NMeV = CN[C@H](C(=O)O)C(C)C; ξNMeV = CNC(C(=O)O)C(C)C; Boc = CC(C)(C)OC(=O)*; ξNMeA = CNC(C)C(=O)O

Tests used:
Assay in all cases: growth of human tumour cells (NCI), 48 h
[1] = tested on: EKVX
[2] = tested on: TK-10
[3] = tested on: NCI-H23
[4] = tested on: ACHN
[5] = tested on: DMS-114
[6] = tested on: CCRF-CEM
[7] = tested on: HT-29
[8] = tested on: NCI-H522
[9] = tested on: A549
[10] = tested on: SNB-78
[11] = tested on: SK-MEL-28
[12] = tested on: U-251
[13] = tested on: OVCAR-5
[14] = tested on: MOLT-4
[15] = tested on: IGROV-1
[16] = tested on: NCI-H226
[17] = tested on: HCT-116
[18] = tested on: UACC-257
[19] = tested on: RXF 393
[20] = tested on: M14
[21] = tested on: SR
[22] = tested on: K562
[23] = tested on: RXF 631
[24] = tested on: SNB-19
[25] = tested on: NCI-H460
[26] = tested on: HL-60
[27] = tested on: HOP-92
[28] = tested on: SF-295
[29] = tested on: A498
[30] = tested on: M19-MEL
[31] = tested on: HOP-62
[32] = tested on: KM12
[33] = tested on: UO-31
[34] = tested on: SK-OV-3
[35] = tested on: OVCAR-8
[36] = tested on: UACC-62
[37] = tested on: DMS-273
[38] = tested on: 786-0
[39] = tested on: DLD-1
[40] = tested on: RPMI-8226
[41] = tested on: CAKI-1
[42] = tested on: KM-20L2
[43] = tested on: LXFL 529
[44] = tested on: SF-268
[45] = tested on: HOP-18
[46] = tested on: XF498
[47] = tested on: HCC 2998
[48] = tested on: LOX IMVI
[49] = tested on: SK-MEL-5
[50] = tested on: Malme-3M
[51] = tested on: COLO 205
[52] = tested on: OVCAR-4
[53] = tested on: SW-620
[54] = tested on: OVCAR-3
[55] = tested on: HCT-15
[56] = tested on: SN12C
[57] = tested on: MCF7
[58] = tested on: DU-145
[59] = tested on: SF-539
[60] = tested on: MDA-MB-435
[61] = tested on: BT-549
[62] = tested on: T47D
[63] = tested on: NCI/ADR-RES
[64] = tested on: MDA-MB-231
[65] = tested on: SK-MEL-2
[66] = tested on: SNB-75
[67] = tested on: PC-3
[68] = tested on: MDA-N

O=C(/C=C/c1ccc(O)cc1)OC[C@@H](O)COC1OC(CO)C(O)C(O)C1O (stereo partly drawn)
GI50 [1]: > 100 µM (inactive)
GI50 [2]: > 100 µM (inactive)
GI50 [3]: > 100 µM (inactive)
GI50 [4]: > 100 µM (inactive)
GI50 [5]: > 100 µM (inactive)
GI50 [6]: > 100 µM (inactive)
GI50 [7]: > 100 µM (inactive)
GI50 [8]: > 100 µM (inactive)
GI50 [9]: > 100 µM (inactive)
GI50 [10]: > 100 µM (inactive)
GI50 [11]: > 100 µM (inactive)
GI50 [12]: > 100 µM (inactive)
GI50 [13]: > 100 µM (inactive)
GI50 [14]: > 100 µM (inactive)
GI50 [15]: > 100 µM (inactive)
GI50 [16]: 94.2 µM (inactive)
GI50 [17]: > 100 µM (inactive)
GI50 [18]: > 100 µM (inactive)
GI50 [19]: > 100 µM (inactive)
GI50 [20]: > 100 µM (inactive)
GI50 [21]: > 100 µM (inactive)
GI50 [22]: > 100 µM (inactive)
GI50 [23]: > 100 µM (inactive)
GI50 [24]: > 100 µM (inactive)
GI50 [25]: > 100 µM (inactive)
GI50 [26]: > 100 µM (inactive)
GI50 [27]: > 100 µM (inactive)
GI50 [28]: > 100 µM (inactive)
GI50 [29]: > 100 µM (inactive)
GI50 [30]: > 100 µM (inactive)
GI50 [31]: > 100 µM (inactive)
GI50 [32]: > 100 µM (inactive)
GI50 [33]: > 100 µM (inactive)
GI50 [34]: > 100 µM (inactive)
GI50 [35]: > 100 µM (inactive)

CN(NC1OC(CO)C(O)C(O)C1O)c1ccccc1 (stereo not drawn)
GI50 [36]: > 100 µM (inactive)
GI50 [37]: > 100 µM (inactive)
GI50 [38]: > 100 µM (inactive)
GI50 [39]: > 100 µM (inactive)
GI50 [2]: > 100 µM (inactive)
GI50 [3]: > 100 µM (inactive)
GI50 [4]: > 100 µM (inactive)
GI50 [40]: > 100 µM (inactive)
GI50 [41]: > 100 µM (inactive)
GI50 [6]: > 100 µM (inactive)
GI50 [42]: > 100 µM (inactive)
GI50 [7]: > 100 µM (inactive)
GI50 [43]: > 100 µM (inactive)
GI50 [44]: > 100 µM (inactive)
GI50 [8]: 94.4 µM (inactive)
GI50 [9]: > 100 µM (inactive)
GI50 [10]: > 100 µM (inactive)
GI50 [11]: > 100 µM (inactive)
GI50 [12]: > 100 µM (inactive)
GI50 [13]: > 100 µM (inactive)
GI50 [14]: > 100 µM (inactive)
GI50 [45]: > 100 µM (inactive)
GI50 [46]: 16.4 µM (inactive)
GI50 [15]: > 100 µM (inactive)
GI50 [47]: 43.4 µM (inactive)
GI50 [16]: > 100 µM (inactive)
GI50 [17]: > 100 µM (inactive)
GI50 [18]: > 100 µM (inactive)
GI50 [19]: > 100 µM (inactive)
GI50 [20]: > 100 µM (inactive)
GI50 [21]: > 100 µM (inactive)
GI50 [48]: > 100 µM (inactive)
GI50 [49]: > 100 µM (inactive)
GI50 [50]: > 100 µM (inactive)
GI50 [22]: > 100 µM (inactive)
GI50 [51]: > 100 µM (inactive)
GI50 [24]: > 100 µM (inactive)
GI50 [25]: > 100 µM (inactive)
GI50 [26]: > 100 µM (inactive)
GI50 [27]: > 100 µM (inactive)
GI50 [28]: > 100 µM (inactive)
GI50 [52]: > 100 µM (inactive)
GI50 [53]: > 100 µM (inactive)
GI50 [30]: > 100 µM (inactive)
GI50 [54]: > 100 µM (inactive)
GI50 [31]: > 100 µM (inactive)
GI50 [32]: > 100 µM (inactive)
GI50 [35]: > 100 µM (inactive)
GI50 [55]: > 100 µM

COC(=O)C(C)N(C)C(=O)[C@H](CC(N)=O)N(C)C(=O)[C@@H]1CCCN1C(=O)[C@H](C(C)C)N(C)C(=O)C(C(C)C)N(C)C(=O)[C@@H](NC(=O)OC(C)(C)C)C(C)C (stereo partly drawn) (Boc-V[ξNMeV][NMeV]P[NMeN][ξNMeA]-OMe)
GI50 [1]: > 50 µM (inactive)
GI50 [36]: > 50 µM (inactive)
GI50 [37]: 42.1 µM (inactive)
GI50 [38]: > 50 µM (inactive)
GI50 [39]: 37 µM (inactive)
GI50 [2]: > 50 µM (inactive)
GI50 [56]: > 50 µM (inactive)
GI50 [57]: > 50 µM (inactive)
GI50 [58]: > 50 µM (inactive)
GI50 [3]: > 50 µM (inactive)
GI50 [4]: > 50 µM (inactive)
GI50 [40]: > 50 µM (inactive)
GI50 [41]: > 50 µM (inactive)
GI50 [6]: > 50 µM (inactive)
GI50 [42]: > 100 µM (inactive)
GI50 [7]: > 50 µM (inactive)
GI50 [43]: > 100 µM (inactive)
GI50 [44]: > 100 µM (inactive)
GI50 [8]: > 50 µM (inactive)
GI50 [9]: 37.5 µM (inactive)
GI50 [10]: > 100 µM (inactive)
GI50 [11]: > 50 µM (inactive)
GI50 [59]: > 50 µM (inactive)
GI50 [12]: > 50 µM (inactive)
GI50 [13]: > 50 µM (inactive)
GI50 [14]: 9.93 µM (inactive)
GI50 [45]: > 100 µM (inactive)
GI50 [46]: > 100 µM (inactive)
GI50 [15]: > 50 µM (inactive)
GI50 [47]: > 50 µM (inactive)
GI50 [16]: > 50 µM (inactive)
GI50 [17]: 30.3 µM (inactive)
GI50 [18]: > 50 µM (inactive)
GI50 [19]: > 50 µM (inactive)
GI50 [20]: > 50 µM (inactive)
GI50 [21]: > 100 µM (inactive)
GI50 [48]: 23.9 µM (inactive)
GI50 [49]: 31.7 µM (inactive)
GI50 [60]: > 50 µM (inactive)
GI50 [50]: > 100 µM (inactive)
GI50 [61]: > 50 µM (inactive)
GI50 [62]: > 50 µM (inactive)
GI50 [22]: 43.4 µM (inactive)
GI50 [51]: > 50 µM (inactive)
GI50 [24]: > 50 µM (inactive)
GI50 [25]: > 50 µM (inactive)
GI50 [26]: 15.1 µM (inactive)
GI50 [63]: > 50 µM (inactive)
GI50 [27]: > 50 µM (inactive)
GI50 [28]: > 50 µM (inactive)
GI50 [64]: > 50 µM (inactive)
GI50 [52]: > 100 µM (inactive)
GI50 [53]: > 50 µM (inactive)
GI50 [29]: > 50 µM (inactive)
GI50 [30]: > 100 µM (inactive)
GI50 [65]: > 50 µM (inactive)
GI50 [54]: > 50 µM (inactive)
GI50 [31]: > 50 µM (inactive)
GI50 [66]: > 100 µM (inactive)
GI50 [32]: > 100 µM (inactive)
GI50 [67]: 11.4 µM (inactive)
GI50 [33]: 24.7 µM (inactive)
GI50 [34]: > 50 µM (inactive)
GI50 [35]: > 100 µM (inactive)
GI50 [55]: > 100 µM
GI50 [68]: > 50 µM (inactive)

COc1ccc2c(=O)c(C)c(-c3ccccc3)oc2c1CN(C)C [DIMEFLINE]
GI50 [36]: > 100 µM (inactive)
GI50 [37]: > 100 µM (inactive)
GI50 [38]: > 100 µM (inactive)
GI50 [39]: > 100 µM (inactive)
GI50 [2]: > 100 µM (inactive)
GI50 [3]: > 100 µM (inactive)
GI50 [4]: > 100 µM (inactive)
GI50 [40]: > 100 µM (inactive)
GI50 [41]: > 100 µM (inactive)
GI50 [6]: > 100 µM (inactive)
GI50 [42]: 97.7 µM (inactive)
GI50 [43]: > 100 µM (inactive)
GI50 [8]: > 100 µM (inactive)
GI50 [9]: > 100 µM (inactive)
GI50 [10]: > 100 µM (inactive)
GI50 [59]: > 100 µM (inactive)
GI50 [13]: 65.5 µM (inactive)
GI50 [14]: > 100 µM (inactive)
GI50 [45]: > 100 µM (inactive)
GI50 [46]: 69.3 µM (inactive)
GI50 [15]: > 100 µM (inactive)
GI50 [47]: > 100 µM (inactive)
GI50 [16]: > 100 µM (inactive)
GI50 [17]: > 100 µM (inactive)
GI50 [19]: > 100 µM (inactive)
GI50 [20]: > 100 µM (inactive)
GI50 [21]: > 100 µM (inactive)
GI50 [48]: > 100 µM (inactive)
GI50 [49]: > 100 µM (inactive)
GI50 [50]: > 100 µM (inactive)
GI50 [22]: > 100 µM (inactive)
GI50 [51]: > 100 µM (inactive)
GI50 [24]: > 100 µM (inactive)
GI50 [25]: > 100 µM (inactive)
GI50 [27]: > 100 µM (inactive)
GI50 [28]: > 100 µM (inactive)
GI50 [52]: > 100 µM (inactive)
GI50 [29]: > 100 µM (inactive)
GI50 [31]: > 100 µM (inactive)
GI50 [32]: > 100 µM (inactive)
GI50 [33]: > 100 µM (inactive)
GI50 [34]: > 100 µM (inactive)
GI50 [35]: > 100 µM (inactive)
